# Source: US8236839B2, “Dual-acting antihypertensive agents” (Theravance, Inc., priority 2007, dated 2012)
# What was measured:
# NEP enzyme = target: T1, NEP enzyme (Homo sapiens, UniProt P08473); test: In vitro enzyme inhibition assay at NEP; type: biochemical; conditions: fluorogenic peptide substrate; human or rat NEP not given; read-out: pIC50 for the NEP enzyme (converted)
# T1 construct: purchased R&D Systems, Minneapolis, Minn; 1182-ZN
# Procedure: The inhibitory activities of compounds at human and rat NEP and human ACE were determined using in vitro assays as described below.
# Rat NEP was prepared from the kidneys of adult Sprague Dawley rats. Whole kidneys were washed in cold PBS and brought up in ice-cold lysis buffer (1% Triton X-114, 150 mM NaCl, 50 mM Tris pH 7.5; Bordier (1981) J. Biol. Chem. 256:1604-1607) in a ratio of 5 mL of buffer for every gram of kidney. Samples were homogenized using a polytron hand held tissue grinder on ice. Homogenates were centrifuged at 1000×g in a swinging bucket rotor for 5 minutes at 3° C. The pellet was resuspended in 20 mL of ice cold lysis buffer and incubated on ice for 30 minutes. […] Protein concentrations were quantitated using a BCA detection system with BSA as a standard. […]
# The assays were performed in 384-well white opaque plates at room temperature using the respective fluorogenic peptides at a concentration of 10 μM in assay buffer (50 mM Tris/HCl at 25° C., 100 mM NaCl, 0.01% Tween-20, 1 μM Zn, 0.025% BSA). […] The rat NEP enzyme preparation was used at a concentration that yielded quantitative proteolysis of 3 μM of Mca-RRL within 20 minutes at room temperature.
# Assays were started by adding 25 μL of enzyme to 12.5 μL of test compound at 12 concentrations (10 μM to 20 pM). […] Plates were read on a fluorometer with excitation and emission wavelengths set to 320 nm and 405 nm, respectively. […]
# human AT1 receptor = target: T2, human AT1 receptor (Homo sapiens, UniProt P30556); test: AT1 radioligand binding assay; conditions: displacement of [Eu]AngII at 2 nM, membranes of CHO-K1 cells expressing human AT1 receptor; read-out: pKi at the AT1 receptor (converted)
# T2 construct: expressed in transfected cells; membrane preparation
# T2 sequence (P30556 1-359): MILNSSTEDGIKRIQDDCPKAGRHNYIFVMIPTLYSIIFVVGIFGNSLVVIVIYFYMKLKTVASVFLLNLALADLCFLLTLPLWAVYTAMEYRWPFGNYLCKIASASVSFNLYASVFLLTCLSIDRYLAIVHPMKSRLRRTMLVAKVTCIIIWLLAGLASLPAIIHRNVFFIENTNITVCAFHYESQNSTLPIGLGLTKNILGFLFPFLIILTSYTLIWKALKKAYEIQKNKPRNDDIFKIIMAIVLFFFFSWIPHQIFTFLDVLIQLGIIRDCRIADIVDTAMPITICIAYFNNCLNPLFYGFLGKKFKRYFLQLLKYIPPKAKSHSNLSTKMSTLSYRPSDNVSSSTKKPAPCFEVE
# Procedure: These in vitro assays were used to assess the ability of test compounds to bind to the AT1 and the AT2 receptors.
# Chinese hamster ovary (CHO-K1) derived cell lines stably expressing the cloned human AT1 or AT2 receptors, respectively, were grown in HAM's-F12 medium supplemented with 10% fetal bovine serum, 10 μg/ml penicillin/streptomycin, and 500 μg/ml geneticin in a 5% CO2 humidified incubator at 37° C. AT2 receptor expressing cells were grown in the additional presence of 100 nM PD123,319 (AT2 antagonist). When cultures reached 80-95% confluence, the cells were washed thoroughly in PBS and lifted with 5 mM EDTA. Cells were pelleted by centrifugation and snap frozen in MeOH-dry ice and stored at −80° C. until further use.
# For membrane preparation, cell pellets were resuspended in lysis buffer (25 mM Tris/HCl pH 7.5 at 4° C., 1 mM EDTA, and one tablet of Complete Protease Inhibitor Cocktail Tablets with 2 mM EDTA per 50 mL buffer (Roche cat. #1697498, Roche Molecular Biochemicals, Indianapolis, Ind.)) and homogenized using a tight-fitting Dounce glass homogenizer (10 strokes) on ice. The homogenate was centrifuged at 1000×g, the supernatant was collected and centrifuged at 20,000×g. […] Protein concentration of the membrane suspension was determined by the method described in Bradford (1976) Anal Biochem. 72:248-54. […]
# T1 sequence (P08473 52-750 limits assumed): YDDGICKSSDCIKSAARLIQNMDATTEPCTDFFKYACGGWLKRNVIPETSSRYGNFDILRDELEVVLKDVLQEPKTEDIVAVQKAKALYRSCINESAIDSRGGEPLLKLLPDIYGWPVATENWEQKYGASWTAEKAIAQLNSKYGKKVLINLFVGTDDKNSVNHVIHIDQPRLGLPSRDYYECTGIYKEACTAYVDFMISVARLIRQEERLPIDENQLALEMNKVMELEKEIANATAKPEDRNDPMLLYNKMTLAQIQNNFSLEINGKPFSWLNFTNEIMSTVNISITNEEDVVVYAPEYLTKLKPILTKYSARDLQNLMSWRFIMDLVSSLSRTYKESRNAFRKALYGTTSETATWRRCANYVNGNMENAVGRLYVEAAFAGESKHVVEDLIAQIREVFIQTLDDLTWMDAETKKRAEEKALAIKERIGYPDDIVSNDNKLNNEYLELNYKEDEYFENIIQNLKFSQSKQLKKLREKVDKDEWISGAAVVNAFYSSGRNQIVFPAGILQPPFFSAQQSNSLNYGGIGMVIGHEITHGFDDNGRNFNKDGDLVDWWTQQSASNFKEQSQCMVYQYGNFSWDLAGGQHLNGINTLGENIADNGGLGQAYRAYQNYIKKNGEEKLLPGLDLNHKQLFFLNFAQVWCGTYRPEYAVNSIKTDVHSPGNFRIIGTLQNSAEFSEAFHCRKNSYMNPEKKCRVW
IC50 (NEP enzyme),Ki (human AT1 receptor),Compound
≤ 100 nM,< 10 nM,"CCCCCN(Cc1ccc(-c2ccccc2-c2nnn[nH]2)cc1)C(=O)[C@H](CC(=O)O)NC(=O)C(CS)CC(C)C (stereo partly drawn) [Example 1, (S)-3-(2-Mercaptomethyl-4-methylpentanoylamino)-N-pentyl-N-[2′1-(1H-tetrazol-5-yl)biphenyl-4-ylmethyl]succinamic Acid]"
≤ 100 nM,< 10 nM,"CCCCCN(Cc1ccc(-c2ccccc2-c2nnn[nH]2)cc1)C(=O)N1C[C@@H](NC(=O)C(CC(C)C)C(=O)NO)C[C@H]1C(=O)O (stereo partly drawn) [Example 2, (2S,4S)-4-(2-Hydroxycarbamoyl-4-methylpentanoylamino)-1-{pentyl[2′-(1H-tetrazol-5-yl)biphenyl-4-ylmethyl]carbamoyl}pyrrolidine-2-carboxylic Acid]"
